For 26 compounds, IC50 results are on record in patent publication US8389557B2, “Triazole derivatives useful as Axl inhibitors” (Rigel Pharmaceuticals, Inc., priority 2005, dated 2013).

This assay deals with T1, Axl (Homo sapiens, UniProt P30530).
T1 construct: endogenous in cells; host or cells: HeLa cells
T1 sequence (P30530 26-894): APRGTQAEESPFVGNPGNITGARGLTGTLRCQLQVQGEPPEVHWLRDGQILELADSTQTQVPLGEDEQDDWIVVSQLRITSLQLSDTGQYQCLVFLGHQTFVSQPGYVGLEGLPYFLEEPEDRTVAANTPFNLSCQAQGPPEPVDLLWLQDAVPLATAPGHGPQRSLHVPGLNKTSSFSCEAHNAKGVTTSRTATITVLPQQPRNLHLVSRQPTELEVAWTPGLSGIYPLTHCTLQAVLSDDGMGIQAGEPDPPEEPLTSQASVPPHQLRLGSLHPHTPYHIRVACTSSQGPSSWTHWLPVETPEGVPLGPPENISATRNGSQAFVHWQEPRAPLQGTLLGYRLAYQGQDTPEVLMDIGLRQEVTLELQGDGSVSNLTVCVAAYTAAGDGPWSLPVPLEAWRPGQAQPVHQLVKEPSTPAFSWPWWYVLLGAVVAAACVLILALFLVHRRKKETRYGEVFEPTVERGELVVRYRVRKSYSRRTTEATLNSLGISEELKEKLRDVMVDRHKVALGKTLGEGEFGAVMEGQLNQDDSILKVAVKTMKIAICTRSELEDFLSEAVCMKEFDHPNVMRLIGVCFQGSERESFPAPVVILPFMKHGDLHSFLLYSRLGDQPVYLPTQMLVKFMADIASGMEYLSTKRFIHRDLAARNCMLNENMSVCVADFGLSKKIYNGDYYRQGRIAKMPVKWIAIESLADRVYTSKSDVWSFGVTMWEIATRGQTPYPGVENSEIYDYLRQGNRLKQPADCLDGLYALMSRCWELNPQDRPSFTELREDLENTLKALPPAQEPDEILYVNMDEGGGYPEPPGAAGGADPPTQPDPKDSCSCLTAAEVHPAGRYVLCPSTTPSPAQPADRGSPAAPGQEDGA
Put plainly: Phospho-Akt in-cell Western assay (inhibition of Axl activity). The assay is classed as cell-based. In a few lines:
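HeLa cells on poly-L-lysine, starved 24 h in 0.5% FCS DMEM with Axl/Fc 500 ng/mL, pre-treated with compound 1 h at 37° C. Axl stimulated 5 min by anti-Axl/anti-mouse antibody cross-linking. Fixed cells probed with anti-phospho-Akt and HRP secondary, chemiluminescence read.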

Setting [1] is: Table 3, Hela cells, Axl antibody cross-linking stimulation, phospho-Akt chemiluminescence.
[2] abbreviates: Table 5, Hela cells, Axl antibody cross-linking stimulation, phospho-Akt chemiluminescence.
The mark [3] stands for this setting: inhibition of Axl activity, Table 1.
Setting [4] is: inhibition of Axl activity, phospho-Akt in-cell Western assay, Table 1.

A value given as a limit tells only on which side of the number the result lay.

Turning to `Cc1ccsc1C(=O)n1nc(Nc2ccc(OCCN3CCCC3)cc2)nc1N` [compound 283, 5-amino-1-(3-methylthien-2-yl)carbonyl-3-[4-[2-(pyrrolidin-1-yl)ethoxy]phenylamino]-1H-1,2,4-triazole], the IC50 under setting [1] was < 1000 nM. Regarding `CC(C)Oc1ccc(C(=O)n2nc(Nc3ccc4c(c3)C(NC(=O)OC(C)(C)C)CCO4)nc2N)cc1` (centres unmarked) [compound 274], under setting [2], the IC50 was > 20000 nM.

`COCCOCOc1cccc(Nc2nc(N)n(C(=O)c3cccc(C)c3)n2)c1` [compound 212, 5-amino-1-(3-methylphenyl)carbonyl-3-[3-[(2-methoxyethoxy)methoxy]phenylamino]-1H-1,2,4-triazole] came in with a 50% inhibitory concentration (IC50) under setting [3] of 1000 to 10000 nM. `CC(C)(C)Oc1ccc(C(=O)n2nc(Nc3ccc(OCCN4CCCC4)cc3)nc2N)cc1` [compound #1, 5-Amino-3-[4-[2-(pyrrolidin-1-yl)ethoxy]phenylamino]-1-(4-(tert-butoxy)phenyl)carbonyl-1H-1,2,4-triazole]: the concentration for half-maximal inhibition (IC50) under setting [4] was < 1000 nM. Under setting [3], `Cc1ccc(C(=O)n2nc(Nc3cccc(F)c3)nc2N)cc1` [compound 124, 5-amino-3-[3-(fluoro)phenylamino]-1-(4-(methyl)phenyl)carbonyl-1H-1,2,4-triazole] came in with an IC50 of 10000 to 20000 nM. Take `CC(C)Oc1ccc(C(=O)n2nc(Nc3ccc(OCCn4ccnc4)cc3)nc2N)cc1` [compound 372, 5-amino-1-(4-(iso-propoxy)phenyl)carbonyl-3-[4-[2-(imidazol-1-yl)ethoxy]phenylamino]-1H-1,2,4-triazole]: the IC50 under setting [4] is < 1000 nM.

`Cc1ccc(C(=O)n2nc(Nc3cccc(O)c3)nc2N)cc1` [(Ia-15), 5-amino-3-[3-(hydroxy)phenylamino]-1-(4-(methyl)phenyl)carbonyl-1H-1,2,4-triazole] yielded an IC50 under setting [3] of 10000 to 20000 nM. As for `COc1cc(Nc2nc(N)n(C(=O)c3ccc(OC(C)(C)C)cc3)n2)ccc1OCCN1CCCC1` [compound 317, 5-amino-1-(4-(tert-butoxy)phenyl)carbonyl-3-[3-methoxy-4-[2-(pyrrolidin-1-yl)ethoxy]phenylamino]-1H-1,2,4-triazole], the IC50 under setting [4] is < 1000 nM. In the case of `Nc1nc(Nc2ccc(OCCn3ccnc3)cc2)n(C(=O)c2ccc3sccc3c2)n1` [compound 378, 3-amino-1-(benzo[b]thiophen-5-yl)carbonyl-5-[4-[2-(imidazol-1-yl)ethoxy]phenylamino]-1H-1,2,4-triazole], under “Table 4, Hela cells, Axl antibody cross-linking stimulation, phospho-Akt chemiluminescence”, the IC50 was < 1000 nM. Consider `Cc1cccc(C(=O)n2nc(Nc3ccc4c(c3)NC(=O)CO4)nc2N)c1` [compound 161, 5-amino-3-(benzo[b][1,4]oxazin-3(4H)-on-6-yl)amino-1-(3-(methyl)phenyl)carbonyl-1H-1,2,4-triazole], for which the IC50 under setting [2] was > 20000 nM. Consider `CN(C)c1cccc(C(=O)n2nc(Nc3ccc(OCCN4CCCCC4)cc3)nc2N)c1` [compound #11, 5-Amino-1-(3-(dimethylamino)phenyl)carbonyl-3-[4-[2-(piperidin-1-yl)ethoxy]phenylamino]-1H-1,2,4-triazole], for which the half-inhibitory concentration (IC50) under setting [4] was < 1000 nM.

On to `Nc1nc(Nc2ccc(OCCN3CCCC3)c(F)c2)nn1C(=O)c1ccccc1` [compound 308, 5-amino-1-(phenyl)carbonyl-3-[3-fluoro-4-[2-(pyrrolidin-1-yl)ethoxy]phenylamino]-1H-1,2,4-triazole], for which the IC50 under setting [4] is < 1000 nM.

As for `COc1ccc(C(=O)n2nc(Nc3ccc(OCCN4CCCC4)cc3)nc2N)cc1F` [compound 381, 5-amino-1-(3-fluoro-4-methoxyphenyl)carbonyl-3-[4-[2-(pyrrolidin-1-yl)ethoxy]phenylamino]-1H-1,2,4-triazole], under setting [4], the IC50 was < 1000 nM.

As for `Cc1ccc(C(=O)n2nc(Nc3ccccc3C)nc2N)cc1` [compound 144, 5-amino-3-[2-(methyl)phenylamino]-1-(4-(methyl)phenyl)carbonyl-1H-1,2,4-triazole], the IC50 under setting [3] was > 20000 nM. In the case of `CC(C)Oc1ccc(C(=O)n2nc(N)nc2Nc2ccc(OCCN3CCCCC3)cc2)cc1` [compound 47, 3-amino-1-(4-(iso-propoxy)phenyl)carbonyl-5-[4-[2-(piperidin-1-yl)ethoxy]phenylamino]-1H-1,2,4-triazole], under “Table 2, Hela cells, Axl antibody cross-linking stimulation, phospho-Akt chemiluminescence”, the IC50 was > 20000 nM. In the case of `Nc1nc(Nc2ccc(OCCN3CCCC3)cc2)nn1C(=O)c1cccc(N2CCOCC2)c1` [compound 331, 5-amino-1-(3-(morpholin-4-yl)phenyl)carbonyl-3-[4-[2-(pyrrolidin-1-yl)ethoxy]phenylamino]-1H-1,2,4-triazole], under setting [4], the IC50 is < 1000 nM. As to `COc1ccc(NC(=O)n2nc(N)nc2Nc2ccc(OCCN3CCCCC3)cc2)cc1` [compound 184, 3-amino-N-(4-(methoxy)phenyl)-5-[4-[2-(piperidin-1-yl)ethoxy]phenylamino]-1H-1,2,4-triazole-1-carboxamide], the IC50 (Table 8, Hela cells, Axl antibody cross-linking stimulation, phospho-Akt chemiluminescence) is 1000 to 10000 nM. Regarding `Cc1cccc(C(=O)n2nc(Nc3cccc(OCC(=O)O)c3)nc2N)c1` [compound 224, 5-amino-3-(3-hydroxycarbonylmethoxy)phenylamino-1-(3-methylphenyl)carbonyl-1H-1,2,4-triazole], the IC50 under setting [3] is > 20000 nM. In the case of `Cc1cccc(NC(=O)n2nc(Nc3ccc(OCCN4CCCCC4)cc3)nc2N)c1` [compound 29, 5-amino-N-(3-methylphenyl)-3-[4-[2-(piperidin-1-yl)ethoxy]phenylamino]-1H-1,2,4-triazole-1-carboxamide], the IC50 (Table 7, Hela cells, Axl antibody cross-linking stimulation, phospho-Akt chemiluminescence) is < 1000 nM. Consider `CC(C)(C)Oc1ccc(C(=O)n2nc(Nc3ccc(OCCn4ccnc4)cc3)nc2N)cc1` [compound 370, 5-amino-1-(4-(tert-butoxy)phenyl)carbonyl-3-[4-[2-(imidazol-1-yl)ethoxy]phenylamino]-1H-1,2,4-triazole], for which the IC50 under setting [4] is < 1000 nM. For `CC(C)Oc1ccc(C(=O)n2nc(Nc3ccc(OCCN4CCSCC4)cc3)nc2N)cc1` [compound 60], under setting [3], the IC50 is < 1000 nM. In the case of `CN1CCN(c2ccc(Nc3nc(N)n(C(=O)c4cccc(N(C)C)c4)n3)cc2)CC1` [compound 363, 5-amino-1-(3-(dimethylamino)phenyl)carbonyl-3-[4-(4-methylpiperazin-1-yl)phenylamino]-1H-1,2,4-triazole], the IC50 under setting [4] is < 1000 nM. As to `CC(C)(C)Oc1ccc(C(=O)n2nc(Nc3ccc(OCCN4CCCCC4)cc3)nc2N)cc1` [compound 50, 5-amino-3-[4-[2-(piperidin-1-yl)ethoxy]phenylamino]-1-(4-(tert-butoxy)phenyl)carbonyl-1H-1,2,4-triazole], under setting [3], the IC50 is < 1000 nM.

Compound `CC(C)Oc1cncc(C(=O)n2nc(Nc3ccc(OCCN4CCOCC4)cc3)nc2N)c1` [compound 171, 5-amino-1-(3-(iso-propoxy)pyridin-5-yl)carbonyl-3-[4-[2-(morpholin-4-yl)ethoxy]phenylamino]-1H-1,2,4-triazole] returned an IC50 under setting [1] of 1000 to 10000 nM. With `Nc1nc(Nc2ccc3c(c2)OCCO3)nn1C(=O)c1cccc(OCC(F)(F)F)c1` [compound 228, 5-amino-3-(1,4-benzodioxan-6-yl)amino-1-(3-(2,2,2-trifluoroethoxy)phenyl)carbonyl-1H-1,2,4-triazole], the IC50 under setting [3] was > 20000 nM.

For `COc1cc(OC)cc(C(=O)n2nc(Nc3ccc(OCCN4CCCC4)cc3)nc2N)c1` [compound #22, 5-Amino-1-(3,5-(dimethoxy)phenyl)carbonyl-3-[4-[2-(pyrrolidin-1-yl)ethoxy]phenylamino]-1H-1,2,4-triazole], the half-inhibitory concentration (IC50) under setting [4] was < 1000 nM.
